This is an account of results in patent US6348190B1, “Pharmaceutical compositions with antimicrobial activity” (Richter Gedeon Vegyeszeti Gyar Rt., priority 1996, dated 2002).

One experiment has as its system the bacteria tested. Description: Seventh series: sterility examination after termination of the 72 hours trial. It counts as cell-based. Particulars: sterility examination after the 72 hours trial. The source says:
It can be observed that a nearly immediate effect occurs after inoculation.

The test system of the next experiment is Salmonella sp. Description: Second series: number of germs against prolonged time in 0.1% solutions. In kind it is cell-based. The settings on record: 0.1% solution; for number of test organisms: Salmonella sp. The protocol:
(§1) Zinc and sodium hyaluronate solutions of […] (obtained by diluting solutions of 0.5% prepared according to Examples 1 and 2) were artificially infected by the identical germ count of various test organisms and the changing of the number of germs was taken against time. The number of germs was determined in a point of time by plating method. The evaluation was visually carried out at moulds and by using an automated colony counter at bacteria and fungi.
(§2) The effects of 0.1% zinc hyaluronate and sodium hyaluronate solutions, respectively on three distinguished test organisms are illustrated in Table 3.

The subject of a further experiment is Staphylococcus aureus. The experiment is described as above. In kind it is cell-based. Particulars: 0.1% solution; for number of test organisms: Staphylococcus aureus. The protocol: as §1, §2
Experiment [1] has as its system Pseudomonas aeruginosa. Description: Third series: effect of solutions of various concentrations on Pseudomonas aeruginosa. In kind it is cell-based. Here is the method:
as §1
Due to the ophthalmological importance of Pseudomonas aeruginosa, the effects of zinc hyaluronate solutions of various concentrations on Pseudomonas aeruginosa were studied in comparison to sodium hyaluronate solutions of the same concentrations.

The subject of a further experiment is Staphylococcus areus. Description: Fifth series: MIC and CID by serial dilution. It counts as cell-based, Staphylococcus aureus. The settings on record: serial dilution from 0.2% solution. Here is the method:
(§3) The antibacterial effect of zinc hyaluronate associate can be characterized by the following values of the minimum inhibitory concentration (MIC) and microbicidal concentration (CID) in comparison to the corresponding values of sodium hyaluronate.
(§4) MIC and CID values were determined by using solutions of 0.2% concentration. The determinations were conducted in a known way: a serial dilution was prepared from the substances to be tested and these solutions were artificially infected by the corresponding dilutions of the selected test organisms. After incubation at a suitable temperature for an appropriate time, the concentration series was visually evaluated and the minimum concentration was determined, which inhibited the growth of microorganisms (MIC value), or induced the death of the microorganisms (CID value).

For experiment [2], the system named is Helicobacter pylori strain 822/96. Description: Eighth series: MIC on Helicobacter pylori, agar with 10% bovine blood. It counts as cell-based. The protocol: These investigations were carried out by using 1.0 weight/vol. % zinc hyaluronate solution on Helicobacter pylori strains cultivated from the gastric is biopsy samples of patients suffering from various ulcers. An 1% solution of De-Nol (colloidal bismuth subcitrate) was used as reference substance. Agar culture medium (nutrient medium) supplemented with 10% of bovine blood was used for the investigations. Plates without compound to be tested were used as controls. The inoculated plates were incubated for 3 to 5 days at 37° C. in a gaseous environment containing 5% of oxygen and 7 to 8% of carbon dioxide. The value of minimum inhibitory concentration (MIC) was considered to be the minimum concentration of substances totally inhibiting the propagation of bacteria well-growing on the control plates.

A further experiment deals with Streptococcus sp. Briefly: Fifth series: MIC and CID by serial dilution. It counts as cell-based. The settings on record: serial dilution from 0.2% solution. The protocol: as §3, §4
Another experiment has as its system Escherichia coli. Briefly: Fifth series: MIC and CID by serial dilution. Particulars: serial dilution from 0.2% solution. In kind it is cell-based. The protocol: as §3, §4
The next experiment relates to Salmonella. Description: Fifth series: MIC and CID by serial dilution. Particulars: serial dilution from 0.2% solution. It counts as cell-based. Here is the method: as §3, §4
Experiment [3] deals with Pseudomonas aeruginosa. Briefly: Second series: number of germs against prolonged time in 0.1% solutions. In kind it is cell-based. Particulars: 0.1% solution. Here is the method: as §1, §2

A word on the MIC: it is the least concentration at which growth counts as inhibited.

As to “cobalt(II) hyaluronate [cobalt hyaluronate]”, the “character of the effect (static or bactericidal)” value in the experiment on the bacteria tested is recorded as “bactericidal effect”.

Consider sodium hyaluronate [reference compound], for which the “number of test organisms” value is listed as 8.0 × 10^6 Test-organism/ml in the experiment on Salmonella sp (0 hr); 8.1 × 10^6 Test-organism/ml in the experiment with Salmonella sp (24 hrs); 1.2 × 10^6 Test-organism/ml in the experiment on Salmonella sp (48 hrs); 1.8 × 10^6 Test-organism/ml in the experiment with Salmonella sp (72 hrs); 1.3 × 10^6 Test-organism/ml with Staphylococcus aureus (0 hr); 4.1 × 10^6 Test-organism/ml with Staphylococcus aureus (24 hrs). The “number of test organisms” value is on record as 6.2 × 10^6 Test-organism/ml in the experiment on Staphylococcus aureus (48 hrs) and 8.4 × 10^6 Test-organism/ml in the experiment with Staphylococcus aureus (72 hrs). In addition, the “course of the count over the test time (in words)” value in the experiment with Salmonella sp (Salmonella) and with Staphylococcus aureus (Staphylococcus) was “remained practically within the same order” each time.

For zinc hyaluronate, the “number of test organisms” value with Pseudomonas aeruginosa [1] (0.1% solution, 0 hr) is on record as 5.5 × 10^5 Test-organism /ml; in the experiment with Pseudomonas aeruginosa [1] (0.1% solution, 24 hrs), 5.0 × 10^5 Test-organism /ml; in the experiment with Pseudomonas aeruginosa [1] (0.1% solution, 48 hrs) it was 2.0 × 10^3 Test-organism /ml; in the experiment with Pseudomonas aeruginosa [1] (0.1% solution, 72 hrs) it was <100 Test-organism /ml; in the experiment with Pseudomonas aeruginosa [1] (0.2% solution, 0 hr) it was 8.0 × 10^5 Test-organism /ml; in the experiment on Pseudomonas aeruginosa [1] (0.2% solution, 24 hrs), 5.5 × 10^5 Test-organism /ml. The “number of test organisms” value in the experiment with Pseudomonas aeruginosa [1] (0.2% solution, 48 hrs) is 3.0 × 10^3 Test-organism /ml; in the experiment with Pseudomonas aeruginosa [1] (0.2% solution, 72 hrs), <100 Test-organism /ml; with Pseudomonas aeruginosa [1] (0.5% solution, 0 hr), 1.0 × 10^6 Test-organism /ml; with Pseudomonas aeruginosa [1] (0.5% solution, 24 hrs), 6.0 × 10^5 Test-organism /ml; in the experiment with Pseudomonas aeruginosa [1] (0.5% solution, 48 hrs), 3.0 × 10^3 Test-organism /ml; in the experiment on Pseudomonas aeruginosa [1] (0.5% solution, 72 hrs), <100 Test-organism /ml. Besides, the “number of test organisms” value in the experiment with Salmonella sp (0 hr) is 2.0 × 10^6 Test-organism/ml; with Salmonella sp (24 hrs), 1.1 × 10^6 Test-organism/ml; in the experiment on Salmonella sp (48 hrs), 0 Test-organism/ml; with Salmonella sp (72 hrs) it was 0 Test-organism/ml; with Salmonella sp (96 hrs), 0 Test-organism/ml; in the experiment with Salmonella sp (168 hrs), 0 Test-organism/ml. Besides, the “number of test organisms” value is listed as 2.1 × 10^5 Test-organism/ml in the experiment with Pseudomonas aeruginosa [3] (0 hr); 2.4 × 10^4 Test-organism/ml in the experiment on Pseudomonas aeruginosa [3] (24 hrs); 3.0 × 10^3 Test-organism/ml with Pseudomonas aeruginosa [3] (48 hrs); <100 Test-organism/ml with Pseudomonas aeruginosa [3] (72 hrs); <100 Test-organism/ml with Pseudomonas aeruginosa [3] (96 hrs); 0 Test-organism/ml with Pseudomonas aeruginosa [3] (168 hrs). In addition, the “number of test organisms” value in the experiment with Staphylococcus aureus (0 hr) is reported as 4.2 × 10^6 Test-organism/ml; in the experiment on Staphylococcus aureus (24 hrs), 4.6 × 10^6 Test-organism/ml; in the experiment with Staphylococcus aureus (48 hrs), 0 Test-organism/ml; with Staphylococcus aureus (72 hrs), 0 Test-organism/ml; in the experiment on Staphylococcus aureus (96 hrs), 0 Test-organism/ml; with Staphylococcus aureus (168 hrs), 0 Test-organism/ml. The “activity compared (in words)” value in the experiment on Pseudomonas aeruginosa [1] (Tables 4 and 5) is “obviously more effective than sodium hyaluronate solutions”. Also, the “CID (microbicidal concentration)” value with Staphylococcus areus amounted to 120 µg/mL; in the experiment on Streptococcus sp, 400 µg/mL; in the experiment on Escherichia coli, 310 µg/mL; with Salmonella, 160 µg/mL. Moreover, the “MIC (minimum inhibitory concentration)” value in the experiment with Staphylococcus areus came out at 40 µg/mL; with Streptococcus sp, 96 µg/mL; against Escherichia coli, 26 µg/mL; against Salmonella it was 5.4 µg/mL. Besides, the “in vitro activity compared (in words)” value in experiment [2] (Helicobacter pylori) is recorded as “comparable to the activity of De-Nol”. In experiment [2] (Helicobacter pylori strain 822/96, 3 to 5 days at 37° C., 5% oxygen, 7 to 8% carbon dioxide), this substance registered an MIC of 500 µg/mL. Moreover, the “time until count reduced to zero” value in the experiment on Salmonella sp (Salmonella) and with Staphylococcus aureus (Staphylococcus) was ≤ 48 h throughout. Besides, in the experiment with Pseudomonas aeruginosa [3], the “onset of effect (in words)” value is recorded as “significant decrease appeared only from the second day”.
